Values belong to the compound of their own block, whether it stands above or below them. Starred links: 1 amine or outer side, 2 acyl side, 3 side chain; linkers in the order of their positions; H or OH if unused. Non-standard residues stand in square brackets, D forms with d. Residues, ends and D or L forms follow the SMILES beside them. X1 = O=C([C@H](Cc1ccc(O)cc1)N(c1ccc2ccccc2n1)[*:1])[*:2]
Key:
[1] = test system: Hepatocarcinoma BEL-7402 cells; assay: Cell proliferation inhibition assay (SRB method), BEL-7402; format: cell-based; conditions: for IC50: BEL-7402, 72 hours, SRB
Experimental: (§1) Hepatocarcinoma BEL-7402 and SMMC-7721 cells were purchased from American Standard Bacterial Bank. All cell lines were stored in a cell culture medium containing 10% fetal bovine serum in a humid environment at 37° C. and 5% CO2. The two kinds of hepatocarcinoma cells were seeded in 96-well plates overnight. The assay were performed using a final highest concentration of 100 μM, 10-fold dilution, 6 gradients and 3 duplicates, and the cells were treated for 72 hours and three independent repeated experiments were carried out. The antiproliferative activity of the compound was determined by Sulforhodamine B (SRB) method. Then the absorbance OD value at a wavelength of 510 nm was measured on a Synergy H4 Hybrid reader (BioTek, Winooski, Vt., USA) by using Gen5.0 software (BioTek). The IC50 value was calculated using the software Prism 5 (GraphPad Software, Inc).

[2] = test system: Hepatocarcinoma SMMC-7721 cells; assay: Cell proliferation inhibition assay (SRB method), SMMC-7721; format: cell-based; conditions: for IC50: SMMC-7721, 72 hours, SRB
Experimental: as §1

[3] = format: in vitro ADME; conditions: 1 mg/ml in pig liver slurry, 0.25-3 hour, FIG. 3
Experimental: 5 g of a fresh pig liver from which adhering fat and connective tissue were removed, was washed with a cold saline, absorbed water on its surface with a filter paper and weighed. The liver was cut into pieces with a scissors, added with an appropriate amount of a PBS buffer, and homogenized with a homogenizer at a frequency of 30/s for 4 minutes to prepare 20 ml of a slurry. The compound 2-40 to be tested (at a final concentration of 1 mg/ml with a co-solvent (1% DMSO)) was added into the 20 ml pig liver slurry, stirred thoroughly and left stand. 1 ml of samples were withdrawn twice at six time points: 0.25 hour, 0.5 hour, 1 hour, 1.5 hour, 2 hour and 3 hour, respectively, and added with methanol (500 μl) to stop the reaction. After centrifugation (1000 rpm, 6 minutes), the supernatant was separated and extracted twice with 750 μl of water-saturated n-butanol. The extracted samples were then analyzed by HPLC. The HPLC analysis was performed on an Agilent Zorbax SB-C18 column (5 μm, 4.6×250 mm) with a flow rate of […] at 25° C. The gradient condition used was from 50% A (MeOH) and 50% B (H2O+0.2% CH3COOH) to 95% A and 5% B in 16 minutes. The absorbance values at 210, 254 and 280 nm were collected using a UV-DAD detector.

μ-opioid receptor (MOR) = μ-opioid receptor (MOR) (Homo sapiens, UniProt P35372); assay: [35S]GTPγS binding assay, MOR agonist activity; format: biochemical; conditions: for Emax: [35S]GTPγS binding rate
Experimental: Protein concentration was detected using BCA protein concentration assay kit: 10 μl of protein standard was prepared into a final concentration of 0.5 mg/ml. 0, 1, 2, 4, 8, 12, 16, or 20 μl of BSA standard protein was taken and added together with the sample to be tested to a 96-well plate, and supplemented to 20 μl with the solution for diluting the standard. 200 μl of BCA working solution was added to each well and placed at 37° C. for 30 min. The absorbance at A562 wavelength was measured with a microplate reader. The protein concentration was calculated based on the standard curve.
The prepared membrane receptor was diluted to the required concentration with the reaction buffer (R.B), and the samples were added as shown in Table 2 (unit: μl).
The reaction tube was incubated in a 27° C. water bath for 1 hour, and the mixture was filtered through a glass fiber membrane under reduced pressure and liquid scintillation counting was performed. The following equation was used to perform calculation:
[^35S] GTPγS binding rate=100×(cpmsample−cpmnon-specific)/(cpmbasal−cpmnon-specific)

tankyrase (TNKS) = conditions: read-out: IC50 (TNKS inhibitor); cited from earlier work

Sequence of μ-opioid receptor (MOR) (P35372 whole entry): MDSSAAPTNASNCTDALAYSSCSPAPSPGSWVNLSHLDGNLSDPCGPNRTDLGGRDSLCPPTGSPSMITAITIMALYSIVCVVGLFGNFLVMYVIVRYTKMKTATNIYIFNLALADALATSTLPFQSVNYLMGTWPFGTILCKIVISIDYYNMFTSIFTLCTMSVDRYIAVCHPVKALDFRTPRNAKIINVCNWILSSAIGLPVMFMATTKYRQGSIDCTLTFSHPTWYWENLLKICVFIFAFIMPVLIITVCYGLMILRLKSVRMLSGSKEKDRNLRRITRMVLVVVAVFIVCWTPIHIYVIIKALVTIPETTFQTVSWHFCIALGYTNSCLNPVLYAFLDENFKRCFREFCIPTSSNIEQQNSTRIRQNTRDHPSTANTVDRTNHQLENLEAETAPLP

Compound: CC(C)C[C@H](NC(=O)[C@H](CO)NC(=O)[C@@H](N)Cc1ccc(O)cc1)C(=O)O [YSL, Tyroserleutide, reference compound] (H-Tyr-Ser-Leu-OH; N-terminus and C-terminus assumed)
IC50 [1]: > 100 µM
IC50 [2]: > 100 µM

metabolic stability in liver tissue [3]: good metabolic stability
Compound: C=C(/C=C\C(=C)NC(=O)[C@H](CCCNC(N)=O)NC(=O)[C@@H](Nc1cc(C)c2ccc(-c3ccccc3F)cc2n1)C(C)C)CO [Compound 2-40]

Compound: COC(=O)[C@H](CC(C)C)NC(=O)[C@H](CO)NC(=O)[C@@H](N)Cc1ccc(O)cc1 [YSL-M, tyroserleucide methyl ester, reference compound] (H-Tyr-Ser-Leu-OMe; N-terminus assumed)
IC50 [1]: > 100 µM
IC50 [2]: > 100 µM

Compound: C[C@H](NC(=O)[C@H](Cc1ccc(O)cc1)Nc1ccc2ccccc2n1)C(=O)N[C@H](Cc1ccccc1)C(=O)NCC(=O)N[C@H](Cc1ccc(O)cc1)C(=O)N1CCC[C@H]1C(=O)N[C@@H](CO)C(N)=O [Compound 2-38] (H-[X1]A[dF]G[dY]PS-NH2)
MOR agonist activity compared with derorphin (μ-opioid receptor (MOR)): activity comparable to that of derorphin
EC50 (μ-opioid receptor (MOR); mean ± sem): 0.224 ± 0.0251 µM
Emax (μ-opioid receptor (MOR); mean ± sem): 203 ± 5.1%

Compound: Cc1cc(=O)[nH]c2cc(-c3ccccc3F)ccc12 [7-(2-fluorophenyl)-4-methylquinoline-2(1H)-one]
IC50 (tankyrase (TNKS)): 0.052 µM

Compound: C[C@@H](NC(=O)[C@@H](N)Cc1ccc(O)cc1)C(=O)N[C@@H](Cc1ccccc1)C(=O)NCC(=O)N[C@@H](Cc1ccc(O)cc1)C(=O)N1CCC[C@H]1C(=O)N[C@@H](CO)C(N)=O [derorphin, reference compound]
Emax (μ-opioid receptor (MOR); mean ± sem): 219 ± 7.1%

Compound: COC(=O)[C@H](CC(C)C)NC(=O)[C@H](CO)NC(=O)[C@H](Cc1ccc(O)cc1)Nc1ccc2ccccc2n1 [Compound 2-39]
cytotoxicity compared with unmodified drugs ([1]; BEL-7402): better cytotoxicities than the unmodified drugs
IC50 [1]: 52.6 ± 2.47 µM
cytotoxicity compared with unmodified drugs ([2]; SMMC-7721): better cytotoxicities than the unmodified drugs
IC50 [2]: 63.3 ± 6.35 µM

— patent US20220177515A1, “METHOD FOR MODIFYING AMINO GROUP IN MOLECULE WITH THE ZOLINIUM AND USE THEREOF” (priority 2019, published 2022)
